# Measured values as given in patent US10478389B2, “Hair-dye composition” (KAO CORPORATION, priority 2014, dated 2019).
# Test: pKa values of the azo dyes
# Format: physicochemical
# Details: azo dye
# Protocol: Thus, in the hair dye composition of the present invention having pH (25° C.) of 7.5 to 12, almost 80% or more of these azo dyes are present in an anionic state where a proton(s) is dissociated.
row,Structure (SMILES),pKa
1,CSc1nsc(/N=N/c2ccc(O)c(Cl)c2)n1 [Example A-1],6
2,NS(=O)(=O)c1ccc2nsc(/N=N/c3ccc(O)c(Cl)c3)c2c1 [Example A-2],6
3,Cn1nccc1/N=N/c1ccc(O)c(Cl)c1 [Example A-3],7.5
